One experiment has as its target hERG (Homo sapiens, UniProt Q12809). As to the kind of experiment: hERG inhibition. The text has this: It is well known that blockade of the cardiac ion channel coded by human ether-n-gogo-related gene (hERG) is a risk factor in drug discovery and development. Blockage of hERG can cause safety problems such as cardiac arrhythmia. Advantageously, the compounds of Formula I have low hERG activity.
(In general: hERG is a cardiac potassium channel; its block is linked to QT prolongation.)

Another experiment relates to BRCA2 (−/−) DLD1 cells. Description: PARP proliferation assay (7 day compound dosing), BRCA2 (−/−) DLD1. Type of experiment: cell-based. Conditions: Homo sapiens, DLD-1, 168 h, BRCA2 −/− DLD-1 cells, 7 day dosing; read-out: BRCA2 −/− DLD-1 prolif. 7 d IC50. On the procedure: (§1) PARP Proliferation Assay (7 Day Compound Dosing)
(§2) DLD1 and BRCA2 (−/−) DLD1 cells were harvested to a density of 5000 cells/ml and 2.5E4 cells/ml respectively in complete media, 40 μL/well seeded into 384-well plates (Greiner, Kremsmunster, Austria; 781090) using a Multidrop Combi then incubated at 37° C., 5% CO2 overnight. Next day (Day 1) using a Multidrop Combi add sytoxgreen (5 ul, 2 uM) and saponin (10 ul, 0.25% stock) to a day 0 plate, seal the plate using a black adhesive lid and incubate for >3 h at rt. Cells were imaged using Cell Insight (Thermo Fisher) fitted with a 4× objective. Test compounds are added using an Echo 555 and placed in incubator maintained at 37° C., 5% CO2 and incubated for 7 days. On Day 8 add sytox green (5 ul, 2 uM) and then saponin (10 ul, 0.25% stock) to plates, seal the plate using a black adhesive lid and incubate for >3 h at rt. Read all cells on the Cell Insight with 4× Objective. The rate of proliferation is determined in Genedata by assessing the total cell number output from the Cell Insight for Day 0 and Day 8 plates.

The test system of a further experiment is DLD1 cells. As to the kind of experiment: PARP proliferation assay (7 day compound dosing), WT DLD1. Type of experiment: cell-based. Conditions: Homo sapiens, 168 h; WT DLD-1 cells, 7 day dosing; read-out: WT DLD-1 prolif. 7 d IC50. As for the experimental part: as §1, §2

IC50 data for 27 compounds are collected here from patent US12421208B2, “Chemical compounds” (ASTRAZENECA AB, priority 2020, dated 2025).

A value given as a limit tells only on which side of the number the result lay.

Sequence of hERG (Q12809 whole entry): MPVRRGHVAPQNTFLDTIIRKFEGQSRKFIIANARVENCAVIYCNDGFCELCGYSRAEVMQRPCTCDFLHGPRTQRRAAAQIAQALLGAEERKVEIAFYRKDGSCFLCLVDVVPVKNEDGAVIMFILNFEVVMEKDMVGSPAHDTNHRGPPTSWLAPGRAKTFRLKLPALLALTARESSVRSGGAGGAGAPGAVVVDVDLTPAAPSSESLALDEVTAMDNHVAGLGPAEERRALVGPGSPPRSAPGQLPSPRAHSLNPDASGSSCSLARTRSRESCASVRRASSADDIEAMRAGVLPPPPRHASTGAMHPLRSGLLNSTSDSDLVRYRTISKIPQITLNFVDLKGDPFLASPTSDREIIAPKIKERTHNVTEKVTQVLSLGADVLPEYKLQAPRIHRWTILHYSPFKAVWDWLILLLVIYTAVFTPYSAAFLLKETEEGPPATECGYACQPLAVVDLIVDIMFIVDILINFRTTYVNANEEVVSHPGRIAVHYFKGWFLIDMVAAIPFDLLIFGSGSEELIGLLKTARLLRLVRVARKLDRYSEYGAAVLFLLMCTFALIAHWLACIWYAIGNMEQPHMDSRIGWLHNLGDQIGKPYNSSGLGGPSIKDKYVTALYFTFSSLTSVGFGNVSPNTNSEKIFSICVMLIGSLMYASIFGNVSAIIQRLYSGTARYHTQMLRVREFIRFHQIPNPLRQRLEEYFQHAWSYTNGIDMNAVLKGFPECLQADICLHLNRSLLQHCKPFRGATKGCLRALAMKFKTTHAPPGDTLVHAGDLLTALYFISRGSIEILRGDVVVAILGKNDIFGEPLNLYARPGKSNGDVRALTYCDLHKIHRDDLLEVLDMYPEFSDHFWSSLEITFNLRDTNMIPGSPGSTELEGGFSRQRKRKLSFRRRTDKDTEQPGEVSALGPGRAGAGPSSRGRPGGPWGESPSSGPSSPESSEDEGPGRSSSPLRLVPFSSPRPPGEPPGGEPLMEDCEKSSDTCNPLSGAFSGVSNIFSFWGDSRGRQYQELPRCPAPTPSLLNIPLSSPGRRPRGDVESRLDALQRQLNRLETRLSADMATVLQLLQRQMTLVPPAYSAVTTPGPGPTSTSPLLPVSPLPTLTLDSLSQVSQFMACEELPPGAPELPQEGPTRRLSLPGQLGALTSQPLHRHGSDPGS

Turning to `CNC(=O)c1ccc(N2CCN(Cc3ccc4nc(C)c(=O)[nH]c4c3F)CC2)c(Cl)n1` [Example 30, 6-chloro-5-[4-[(5-fluoro-2-methyl-3-oxo-4H-quinoxalin-6-yl)methyl]piperazin-1-yl]-N-methyl-pyridine-2-carboxamide], the figures for the IC50 at hERG, with BRCA2 (−/−) DLD1 cells and in the experiment on DLD1 cells were above 40000 nM, 3 nM and above 30000 nM, respectively.
On to `CNC(=O)c1ccc(N2CCN(Cc3ccc4nc(OC)c(=O)[nH]c4c3F)CC2)c(C)n1` [Example 40, 5-[4-[(5-fluoro-2-methoxy-3-oxo-4H-quinoxalin-6-yl)methyl]piperazin-1-yl]-N,6-dimethyl-pyridine-2-carboxamide], for which the results for the IC50 against hERG and in the experiment with BRCA2 (−/−) DLD1 cells were above 40000 nM and 7 nM, respectively.
`CNC(=O)c1ccc(N2CCN(Cc3ccc4ncc(=O)[nH]c4c3F)CC2)c(C)n1` [Example 35, 5-[4-[(5-fluoro-3-oxo-4H-quinoxalin-6-yl)methyl]piperazin-1-yl]-N,6-dimethyl-pyridine-2-carboxamide]: the IC50 is 10300 nM with BRCA2 (−/−) DLD1 cells and above 30000 nM with DLD1 cells.
`CNC(=O)c1ccc(N2CCN(Cc3ccc4nc(C(F)(F)F)c(=O)[nH]c4c3F)CC2)c(C)n1` [Example 47, 5-[4-[[5-fluoro-3-oxo-2-(trifluoromethyl)-4H-quinoxalin-6-yl]methyl]piperazin-1-yl]-N,6-dimethyl-pyridine-2-carboxamide]: the IC50 against hERG is above 40000 nM; in the experiment on BRCA2 (−/−) DLD1 cells, 58 nM.
As to `CCNC(=O)c1ccc(N2CCN(Cc3ccc4nc(C)c(=O)[nH]c4c3F)CC2)c(F)n1` [Example 45, N-ethyl-6-fluoro-5-[4-[(5-fluoro-2-methyl-3-oxo-4H-quinoxalin-6-yl)methyl]piperazin-1-yl]pyridine-2-carboxamide], the IC50 in the experiment with BRCA2 (−/−) DLD1 cells is 6 nM.
`CNC(=O)c1ccc(N2CCN(Cc3ccc4nc(OC)c(=O)[nH]c4c3F)CC2)c(Cl)n1` [Example 41, 6-chloro-5-[4-[(5-fluoro-2-methoxy-3-oxo-4H-quinoxalin-6-yl)methyl]piperazin-1-yl]-N-methyl-pyridine-2-carboxamide]: the results for the IC50 against hERG and with BRCA2 (−/−) DLD1 cells were above 40000 nM and 7 nM, respectively.
On to `CCc1nc2ccc(CN3CCN(c4ccc(C(=O)NC)nc4F)CC3)c(F)c2[nH]c1=O` [Example 27, 5-[4-[(2-ethyl-5-fluoro-3-oxo-4H-quinoxalin-6-yl)methyl]piperazin-1-yl]-6-fluoro-N-methyl-pyridine-2-carboxamide], for which the figures for the IC50 on hERG, with BRCA2 (−/−) DLD1 cells and in the experiment with DLD1 cells were above 40000 nM, 6 nM and 6300 nM, respectively.
Regarding `Cc1nc2ccc(CN3CCN(c4ccc(C(N)=O)nc4F)CC3)c(C)c2[nH]c1=O` [Example 5, 5-[4-[(2,5-dimethyl-3-oxo-4H-quinoxalin-6-yl)methyl]piperazin-1-yl]-6-fluoro-pyridine-2-carboxamide], the IC50 in the experiment on BRCA2 (−/−) DLD1 cells worked out at 2890 nM.
As for `CNC(=O)c1ccc(N2CCN(Cc3ccc4nc(C)c(=O)[nH]c4c3F)CC2)c(C)n1` [Example 31, 5-[4-[(5-fluoro-2-methyl-3-oxo-4H-quinoxalin-6-yl)methyl]piperazin-1-yl]-N,6-dimethyl-pyridine-2-carboxamide], the IC50 is above 40000 nM against hERG and above 30000 nM in the experiment with DLD1 cells.
Regarding `CCc1nc2ccc(CN3CCN(c4ccc(C(=O)NC)nc4F)CC3)c(C)c2[nH]c1=O` [Example 43, 5-[4-[(2-ethyl-5-methyl-3-oxo-4H-quinoxalin-6-yl)methyl]piperazin-1-yl]-6-fluoro-N-methyl-pyridine-2-carboxamide], in the experiment with BRCA2 (−/−) DLD1 cells, the IC50 was determined as 10 nM.
For `CNC(=O)c1ccc(N2CCN(Cc3ccc4nc(C)c(=O)[nH]c4c3C)CC2)cn1` [Example 2, 5-[4-[(2,5-dimethyl-3-oxo-4H-quinoxalin-6-yl)methyl]piperazin-1-yl]-N-methyl-pyridine-2-carboxamide], the IC50 on hERG is above 40000 nM; in the experiment with BRCA2 (−/−) DLD1 cells, 734 nM.
As to `CNC(=O)c1ccc(N2CCN(Cc3ccc4ncc(=O)[nH]c4c3F)CC2)c(Cl)n1` [Example 34, 6-chloro-5-[4-[(5-fluoro-3-oxo-4H-quinoxalin-6-yl)methyl]piperazin-1-yl]-N-methyl-pyridine-2-carboxamide], in the experiment with BRCA2 (−/−) DLD1 cells, the IC50 is 8440 nM.
As to `CNC(=O)c1ccc(N2CCN(Cc3ccc4nc(OC)c(=O)[nH]c4c3F)CC2)c(F)n1` [Example 39, 6-fluoro-5-[4-[(5-fluoro-2-methoxy-3-oxo-4H-quinoxalin-6-yl)methyl]piperazin-1-yl]-N-methyl-pyridine-2-carboxamide], the IC50 was above 40000 nM at hERG and 8 nM in the experiment with BRCA2 (−/−) DLD1 cells.
As to `CNC(=O)c1ccc(N2CCN(Cc3ccc4nc(C(C)(F)F)c(=O)[nH]c4c3F)CC2)c(C)n1` [Example 19, 5-[4-[[2-(1,1-difluoroethyl)-5-fluoro-3-oxo-4H-quinoxalin-6-yl]methyl]piperazin-1-yl]-N,6-dimethyl-pyridine-2-carboxamide], the results for the IC50 on hERG and in the experiment on BRCA2 (−/−) DLD1 cells were above 40000 nM and 6 nM, respectively.
Regarding `CCc1nc2ccc(CN3CCN(c4ccc(C(=O)NC)nc4C)CC3)c(C)c2[nH]c1=O` [Example 42, 5-[4-[(2-ethyl-5-methyl-3-oxo-4H-quinoxalin-6-yl)methyl]piperazin-1-yl]-N,6-dimethyl-pyridine-2-carboxamide], the IC50 in the experiment on BRCA2 (−/−) DLD1 cells turned out to be 6 nM.
As to `Cc1nc(C(N)=O)ccc1N1CCN(Cc2ccc3nc(C)c(=O)[nH]c3c2C)CC1` [Example 7, 5-[4-[(2,5-dimethyl-3-oxo-4H-quinoxalin-6-yl)methyl]piperazin-1-yl]-6-methyl-pyridine-2-carboxamide], the results for the IC50 in the experiment on BRCA2 (−/−) DLD1 cells and with DLD1 cells were 8430 nM and above 30000 nM, respectively.
Consider `CNC(=O)c1ccc(N2CCN(Cc3ccc4nc(OC)c(=O)[nH]c4c3F)CC2)cn1` [Example 38, 5-[4-[(5-fluoro-2-methoxy-3-oxo-4H-quinoxalin-6-yl)methyl]piperazin-1-yl]-N-methyl-pyridine-2-carboxamide], for which the values for the IC50 against hERG and in the experiment on BRCA2 (−/−) DLD1 cells were above 40000 nM and 547 nM, respectively.
For `CNC(=O)c1ccc(N2CCN(Cc3ccc4ncc(=O)[nH]c4c3F)CC2)c(F)n1` [Example 36, 6-fluoro-5-[4-[(5-fluoro-3-oxo-4H-quinoxalin-6-yl)methyl]piperazin-1-yl]-N-methyl-pyridine-2-carboxamide], the IC50 in the experiment on BRCA2 (−/−) DLD1 cells turned out to be 16200 nM.
On to `CCc1nc2ccc(CN3CCN(c4ccc(C(=O)NC)nc4Cl)CC3)c(F)c2[nH]c1=O` [Example 28, 6-chloro-5-[4-[(2-ethyl-5-fluoro-3-oxo-4H-quinoxalin-6-yl)methyl]piperazin-1-yl]-N-methyl-pyridine-2-carboxamide], for which the IC50 at hERG is above 38000 nM; in the experiment on BRCA2 (−/−) DLD1 cells, 4 nM.
For `CNC(=O)c1ccc(N2CCN(Cc3ccc4ncc(=O)[nH]c4c3F)CC2)cn1` [Example 33, 5-[4-[(5-fluoro-3-oxo-4H-quinoxalin-6-yl)methyl]piperazin-1-yl]-N-methyl-pyridine-2-carboxamide], the IC50 with BRCA2 (−/−) DLD1 cells was above 30000 nM.
Same read-out and setting: in the case of `CCc1nc2ccc(CN3CCN(c4ccc(C(=O)NC)nc4)CC3)c(C)c2[nH]c1=O` [Example 44, 5-[4-[(2-ethyl-5-methyl-3-oxo-4H-quinoxalin-6-yl)methyl]piperazin-1-yl]-N-methyl-pyridine-2-carboxamide] it was above 30000 nM.
On the same count and under the same terms, next, `CCNC(=O)c1ccc(N2CCN(Cc3ccc4nc(C)c(=O)[nH]c4c3F)CC2)c(C)n1` [Example 46, N-ethyl-5-[4-[(5-fluoro-2-methyl-3-oxo-4H-quinoxalin-6-yl)methyl]piperazin-1-yl]-6-methyl-pyridine-2-carboxamide]: 13 nM; `CNC(=O)c1ccc(N2CCN(Cc3ccc4nc(C(F)F)c(=O)[nH]c4c3F)CC2)c(C)n1` [Example 37, 5-[4-[[2-(difluoromethyl)-5-fluoro-3-oxo-4H-quinoxalin-6-yl]methyl]piperazin-1-yl]-N,6-dimethyl-pyridine-2-carboxamide]: 10 nM.
In the case of `CNC(=O)c1ccc(N2CCN(Cc3ccc4nc(C)c(=O)[nH]c4c3F)CC2)c(C(F)F)n1` [Example 21, 6-(difluoromethyl)-5-[4-[(5-fluoro-2-methyl-3-oxo-4H-quinoxalin-6-yl)methyl]piperazin-1-yl]-N-methyl-pyridine-2-carboxamide], the IC50 at hERG was above 40000 nM; in the experiment with BRCA2 (−/−) DLD1 cells it was 1420 nM.
For `CCc1nc2ccc(CN3CCN(c4ccc(C(N)=O)nc4)CC3)c(F)c2[nH]c1=O` [Example 25, 5-[4-[(2-ethyl-5-fluoro-3-oxo-4H-quinoxalin-6-yl)methyl]piperazin-1-yl]pyridine-2-carboxamide], the IC50 in the experiment with BRCA2 (−/−) DLD1 cells stood at 297 nM.
Turning to `CNC(=O)c1ccc(N2CCN(Cc3ccc4nc(C(F)(F)F)c(=O)[nH]c4c3F)CC2)cn1` [Example 50, 5-[4-[[5-fluoro-3-oxo-2-(trifluoromethyl)-4H-quinoxalin-6-yl]methyl]piperazin-1-yl]-N-methyl-pyridine-2-carboxamide], the IC50 at hERG was above 40000 nM; with BRCA2 (−/−) DLD1 cells, 136 nM.
Turning to `CNC(=O)c1ccc(N2CCN(Cc3ccc4nc(C(F)(F)F)c(=O)[nH]c4c3F)CC2)c(Cl)n1` [Example 49, 6-chloro-5-[4-[[5-fluoro-3-oxo-2-(trifluoromethyl)-4H-quinoxalin-6-yl]methyl]piperazin-1-yl]-N-methyl-pyridine-2-carboxamide], the values for the IC50 at hERG and in the experiment with BRCA2 (−/−) DLD1 cells were above 40000 nM and 41 nM, respectively.
